# Where two headings read alike, the source gives them in different places.
# Key:
# serum cholesterol = assay: Effect on serum cholesterol levels in rats, daily subcutaneous injection (Examples 41, 42); format: in vivo, rat (male, Sprague-Dawley); conditions: for Serum Cholesterol (Mean ± S.E.M.): 5 mg s.c. once a day in triolein; for % Reduction of serum cholesterol (Mean ± S.E.M.): from initial levels in same rats
# Method: Male rats of the Sprague-Dawley strain were fed Purina rat chow ad libidum. The rats were maintained on a light (7 A.M.-6 P.M.) -dark (6 P.M.-7 A.M.) cycle throughout the study and for a period of at least 4 days prior to the initiation of the study.
# (§1) 3β-Hexadecanoyloxy-5α-cholest-8(14)-en-15-one (5 mg; dissolved in 0.25 ml of triolein), hereafter referred to as the "palmitate ester", or 3β-hemisuccinoyloxy-5α-cholest-8(14)-en-15-one (5 mg; suspended in 0.25 ml of triolein through the use of a tight-fitting all-glass homogenizer), hereafter referred to as the "hemisuccinate ester", were administered subcutaneously once a day at about 12 P.M. to each of eight and six rats, respectively. Control animals (8) received daily injections of triolein (0.25 ml).
# Blood samples were taken from the rats periodically and the serum cholesterol concentrations measured, in duplicate, by the method of Abell et al., J. Biol. Chem., Vol. 195, pp. 357-366 ([…]).
# Following generally the procedure described in Example 41, 3β-Ethoxy-14α-ethyl-5α-cholest-7-en-15-one (5 mg) in triolein (0.25 ml) was administered subcutaneously once a day to each of eight rats. Control animals (8) received daily injections of triolein (0.25 ml).
# Similarly, 5α-cholest-8(14)-en-3β-ol-15-one (2mg) in (0.2 ml) olive oil or 5.0 mg in 0.5 ml of olive oil) was administered subcutaneously once a day to each of a group of rats. The 2 mg dose was administered to 12 rats, while a like number of rats received daily injections of 0.2 ml olive oil. 5 mg doses were administered to each of 6 rats, while 6 control animals received daily injections of 0.5 ml olive oil. The rats used in this study initially weighed between 110 and 190 grams.
# [1] = format: in vivo, rat (male, Sprague-Dawley)
# Method: as §1
# The average percentage weight gain over the total experimental period in the palmitate, hemisuccinate, and triolein groups were (mean±S.E.M.) 40.5±4.6, 40.7±1.6, and 43.6±3.3, respectively.
# liver = format: in vivo, rat (male, Sprague-Dawley); conditions: 5 mg s.c. once a day
# Method: as §1
# The mean values of the liver weights of the triolein-treated rats (9.6 g±0.08, S.E.M.). S.E. differed from those of the palmitate ester-treated rats (11.4 g±0.5, S.E.M.). Similarly, the mean value of the liver weights, when expressed as a percentage of the total body weight, of the triolein-treated rats (4.09%±0.08, S.E.M.) differed from the mean value for the palmitate ester-treated rats (4.53%±0.09, S.E.M.).
# [2] = system: sterol biosynthesis in L cells; assay: Inhibition of sterol synthesis from [1-14C]acetate in L cell cultures; format: cell-based; conditions: Mus musculus; L cell cultures; read-out: Concentrations Required for 50% Inhibition of Sterol Synthesis
# Method: The effect of various 15-oxygenated sterols on sterol biosynthesis in L cells and in primary cultures of mouse liver cells was tested essentially under conditions described in detail previously [A. A. Kandutsch and H. W. Chen, J. Biol. Chem., Vol. 248, pp. 8408-8417 (1973) and A. A. Kandutsch and H. W. Chen, J. Biol. Chem., Vol. 249, pp. 6057-6061 (1974`)].
# (§2) The primary liver cell cultures were prepared from 16-day-old (C57BL/6J fetuses and grown in chemically defined medium (serum-free) as described in the above cited publications. The L cells, a subline of NCTC clone 929 mouse fibroblasts, were grown in chemically defined medium (serum-free) as described in the publications. These L cells are transformed fibroblasts which are regarded as malignant since they will grow as tumors if injected into the mouse strain from which they were initially obtained.
# (§3) The preparation of steroid-containing media, procedures for assays of the conversion of [1-^14 C]acetate into digitonin-precipitable sterols, fatty acids, and CO2 and methods for the measurement of DNA, protein, and HMG-CoA reductase were as described in the published articles. L cell cultures were preincubated with the 15-oxygenated sterols and their derivatives for 4 hours, then [1-^14 C]acetate was added at a concentration of 4 μmoles per ml (4 μCi per ml); or the L cell cultures were incubated for 5 hours with the 15-oxygenated sterols before they were harvested for determination of microsomal HMG-CoA reductase activity.
# The test compounds were tested over a range of at least 4 concentrations and the assay was repeated until the concentration of test compound required to produce 50% inhibition was located on the steeply declining portion of an activity vs. concentration plot. To diminish any possible effects of generalized differences in cellular metabolism, the rates of sterol synthesis from [1-^14 C]acetate were calculated as the ratio of [^14 C]sterols to [^14 C]fatty acids as described in the two cited articles by Kandutsch and Chen.
# HMG-CoA reductase = assay: Reduction of the activity of HMG-CoA reductase in L cell cultures; format: cell-based, mouse; conditions: read-out: Concentrations Required for 50% Reduction of the Activity of HMG-CoA Reductase
# Method: as §2, §3
# A number of the 15-oxygenated sterols have also been tested with respect to their effects on the activity and/or levels of the enzyme HMG-CoA reductase (3-hydroxy-3-methylglutaryl coenzyme A reductase) in the L cells and in the liver cells. As noted previously, this enzyme catalyzes the reduction of 3-hydroxy-3-methylglutaryl coenzyme A to yield mevalonic acid, an essential intermediate in the biosynthesis of sterols and of a number of other essential compounds in cells.
# Using the technique described by Kandutsch and Chen in the article cited in the previous example, the concentrations of various 15-oxygenated sterols required to reduce the levels of activity of HMG-CoA reductase by 50% was determined in the cells of the L cells in culture and of the primary cultures of liver cells.
# [3] = system: sterol biosynthesis in L cells; conditions: cited from earlier work; for inhibitory action on the synthesis of sterols (in words): L cells in culture
# [4] = system: sterol biosynthesis in primary cultures of mouse liver cells; conditions: cited from earlier work; for inhibitory action on the synthesis of sterols (in words): primary cultures of mouse liver cells
# plasma cholesterol = conditions: cited from earlier work
smiles,measurement,setting,value
CC(C)CCC[C@@H](C)[C@H]1CC(=O)C2=C3CC[C@H]4C[C@@H](OC(=O)CCC(=O)O)CC[C@]4(C)[C@H]3CC[C@@]21C [3β-hemisuccinoyloxy-5α-cholest-8(14)-en-15-one],Serum Cholesterol (Mean ± S.E.M.),serum cholesterol; day 0 (initial),89.1 ± 2.6 mg per 100 ml
same,Serum Cholesterol (Mean ± S.E.M.),serum cholesterol; day 3,78.6 ± 2.4 mg per 100 ml
same,Serum Cholesterol (Mean ± S.E.M.),serum cholesterol; day 6,72.5 ± 1.9 mg per 100 ml
same,Serum Cholesterol (Mean ± S.E.M.),serum cholesterol; day 9,72.3 ± 1.6 mg per 100 ml
same,Serum Cholesterol (Mean ± S.E.M.),serum cholesterol; day 12,58.8 ± 2.8 mg per 100 ml
same,decrease in serum cholesterol levels (in words),"serum cholesterol; 5 mg s.c. once a day, after 3, 6, 9, 12 days vs same rats before, after 12 days vs triolein",significant decreases in serum cholesterol levels
same,% Reduction of serum cholesterol (Mean ± S.E.M.),"serum cholesterol; 5 mg s.c. once a day, day 3",13.5 ± 4.4%
same,% Reduction of serum cholesterol (Mean ± S.E.M.),"serum cholesterol; 5 mg s.c. once a day, day 6",18.1 ± 4.1%
same,% Reduction of serum cholesterol (Mean ± S.E.M.),"serum cholesterol; 5 mg s.c. once a day, day 9",18.4 ± 3.5%
same,% Reduction of serum cholesterol (Mean ± S.E.M.),"serum cholesterol; 5 mg s.c. once a day, day 12",33.9 ± 2.9%
same,average percentage weight gain (mean±S.E.M.),"[1]; 5 mg s.c. once a day, total experimental period",40.7±1.6%
same,differences in growth versus vehicle-treated rats (in words),[1]; daily s.c.,no significant differences in the growth
same,difference of liver weights from triolein-treated rats (in words),liver,no significant difference
same,"liver weight (mean, S.E.M.)",liver,10.6 g
same,"liver weight as percentage of total body weight (mean, S.E.M.)",liver,4.36%
same,IC50,[2],3200 nM
same,IC50,HMG-CoA reductase,3000 nM
CC(C)CCC[C@@H](C)[C@H]1CC[C@H]2[C@@H]3C(=O)C=C4C[C@@H](O)CC[C@]4(C)[C@H]3CC[C@]12C [7-ketocholesterol],inhibitory action on the synthesis of sterols (in words),[3],strong inhibitory action
same,inhibitory action on the synthesis of sterols (in words),[4],strong inhibitory action
same,plasma cholesterol-lowering effect in mice (in words),plasma cholesterol,no significant plasma cholesterol-lowering effect in mice
"C[C@H](CCCC(C)(C)O)[C@H]1CC[C@H]2[C@@H]3CC=C4C[C@@H](O)CC[C@]4(C)[C@H]3CC[C@]12C [Cholest-5-en-3β,25-diol]",IC50,"[3]; L cell cultures, as reported by Kandutsch and Chen, read-out: Concentrations Required for 50% Inhibition of Sterol Synthesis",70 nM
same,inhibitory action on the synthesis of sterols (in words),[3],strong inhibitory action
same,IC50,"[4]; liver cells, read-out: lowest previously reported concentration for 50% inhibition of sterol synthesis",1000 nM
same,IC50,"[4]; primary cultures of liver cells, as reported by Kandutsch and Chen, read-out: Concentrations Required for 50% Inhibition of Sterol Synthesis",1000 nM
same,inhibitory action on the synthesis of sterols (in words),[4],strong inhibitory action
same,plasma cholesterol-lowering effect in mice (in words),plasma cholesterol,no significant plasma cholesterol-lowering effect in mice
